Experimental data as given in paper PMC5218480 (PLoS ONE, 2017).

System: MV-4-11 cells
Test: Gene expression microarray analysis (Affymetrix PrimeView) and GSEA
Format: cell-based, human
Set-up: RFU PODN (11730768_x_at) / Fold change /veh PODN (11730768_x_at) / RFU LINC00158 (11744669_a_at) / Fold change /veh LINC00158 (11744669_a_at) / RFU DUSP10 (11751237_a_at) / Fold change /veh DUSP10 (11751237_a_at) / RFU ID3 (11757404_x_at) / Fold change /veh ID3 (11757404_x_at) / RFU PLEKHG5 (11737974_s_at) / Fold change /veh PLEKHG5 (11737974_s_at) / RFU LRRC4B (11730491_at) / Fold change /veh LRRC4B (11730491_at) / RFU GIMAP4 (11747438_a_at) / Fold change /veh GIMAP4 (11747438_a_at) / RFU KRT8 (11758183_x_at) / Fold change /veh KRT8 (11758183_x_at) / RFU CNN1 (11734310_a_at) / Fold change /veh CNN1 (11734310_a_at) / RFU VPS37D (11726825_at) / Fold change /veh VPS37D (11726825_at) / RFU C10orf10 (11716522_x_at) / Fold change /veh C10orf10 (11716522_x_at) / RFU KIR2DL2 /// KIR2DL4 /// KIR2DL5A /// KIR2DL5B /// KIR2DS1 /// KIR2DS2 /// KIR2DS3 /// KIR2DS4 /// KIR3DL3 /// KIR3DL3 /// KIR3DS1 (11738374_at) / Fold change /veh KIR2DL2 /// KIR2DL4 /// KIR2DL5A /// KIR2DL5B /// KIR2DS1 /// KIR2DS2 /// KIR2DS3 /// KIR2DS4 /// KIR3DL3 /// KIR3DL3 /// KIR3DS1 (11738374_at) / RFU C1QL1 (11718748_at) / Fold change /veh C1QL1 (11718748_at) / RFU TMPRSS4 (11747572_a_at) / Fold change /veh TMPRSS4 (11747572_a_at) / RFU HAMP (11756126_x_at) / Fold change /veh HAMP (11756126_x_at) / RFU RNFT2 (11725882_a_at) / Fold change /veh RNFT2 (11725882_a_at) / RFU NR4A2 (11747474_a_at) / Fold change /veh NR4A2 (11747474_a_at) / RFU ABCC12 (11746883_a_at) / Fold change /veh ABCC12 (11746883_a_at) / RFU TMEM136 (11760407_x_at) / Fold change /veh TMEM136 (11760407_x_at) / RFU CLDN22 /// WWC2 (11732394_at) / Fold change /veh CLDN22 /// WWC2 (11732394_at) / RFU HLA-DPB1 (11760878_x_at) / Fold change /veh HLA-DPB1 (11760878_x_at) / RFU SPINT1 (11716480_a_at) / Fold change /veh SPINT1 (11716480_a_at) / RFU GAP43 (11754022_s_at) / Fold change /veh GAP43 (11754022_s_at) / RFU A4GNT (11735810_at) / Fold change /veh A4GNT (11735810_at) / RFU PRB3 (11715151_x_at) / Fold change /veh PRB3 (11715151_x_at) / RFU TUBB4B (11761932_at) / Fold change /veh TUBB4B (11761932_at) / RFU CAPN14 (11732068_a_at) / Fold change /veh CAPN14 (11732068_a_at) / RFU TMCC2 (11721928_a_at) / Fold change /veh TMCC2 (11721928_a_at) / RFU IRGQ (11745062_a_at) / Fold change /veh IRGQ (11745062_a_at) / RFU FAM174B (11720279_a_at) / Fold change /veh FAM174B (11720279_a_at) / RFU TMPRSS4 (11748680_a_at) / Fold change /veh TMPRSS4 (11748680_a_at) / RFU FAM212B (11763350_a_at) / Fold change /veh FAM212B (11763350_a_at) / RFU PLEKHG5 (11743358_a_at) / Fold change /veh PLEKHG5 (11743358_a_at) / RFU ZSCAN30 (11745921_a_at) / Fold change /veh ZSCAN30 (11745921_a_at) / RFU CMKLR1 (11741424_a_at) / Fold change /veh CMKLR1 (11741424_a_at) / RFU LOC101060620 /// MAPK8IP1 (11723275_at) / Fold change /veh LOC101060620 /// MAPK8IP1 (11723275_at) / RFU SPTSSB (11747773_x_at) / Fold change /veh SPTSSB (11747773_x_at) / RFU PRSS12 (11739890_at) / Fold change /veh PRSS12 (11739890_at) / RFU BIN1 (11741810_x_at) / Fold change /veh BIN1 (11741810_x_at) / RFU WNT11 (11732464_a_at) / Fold change /veh WNT11 (11732464_a_at) / RFU C10orf10 (11716521_a_at) / Fold change /veh C10orf10 (11716521_a_at) / RFU C5orf56 (11738089_at) / Fold change /veh C5orf56 (11738089_at) / RFU CYB561 (11721691_x_at) / Fold change /veh CYB561 (11721691_x_at) / RFU ANKRD19P (11752326_a_at) / Fold change /veh ANKRD19P (11752326_a_at) / RFU OR2T12 /// OR2T33 /// OR2T8 (11738714_s_at) / Fold change /veh OR2T12 /// OR2T33 /// OR2T8 (11738714_s_at) / RFU VCAN (11748164_a_at) / Fold change /veh VCAN (11748164_a_at) / RFU JSRP1 (11732532_at) / Fold change /veh JSRP1 (11732532_at) / RFU KRTAP10-11 (11738290_x_at) / Fold change /veh KRTAP10-11 (11738290_x_at) / RFU MYO3A (11730013_a_at) / Fold change /veh MYO3A (11730013_a_at) / RFU EBF3 (11725865_a_at) / Fold change /veh EBF3 (11725865_a_at) / RFU CAMK2N1 (11719241_x_at) / Fold change /veh CAMK2N1 (11719241_x_at) / RFU C5orf56 (11738088_a_at) / Fold change /veh C5orf56 (11738088_a_at) / RFU OLFML3 (11715873_a_at) / Fold change /veh OLFML3 (11715873_a_at) / RFU LOC100653217 /// NTM (11731650_a_at) / Fold change /veh LOC100653217 /// NTM (11731650_a_at) / RFU MAPK11 (11762145_a_at) / Fold change /veh MAPK11 (11762145_a_at) / RFU FIZ1 (11724087_x_at) / Fold change /veh FIZ1 (11724087_x_at) / RFU OASL (11726364_x_at) / Fold change /veh OASL (11726364_x_at) / RFU SOX15 (11748057_x_at) / Fold change /veh SOX15 (11748057_x_at) / RFU CD79A (11719716_a_at) / Fold change /veh CD79A (11719716_a_at) / RFU HIST1H1D (11736915_at) / Fold change /veh HIST1H1D (11736915_at) / RFU CASKIN2 (11723855_a_at) / Fold change /veh CASKIN2 (11723855_a_at) / RFU LOC730098 (11760151_x_at) / Fold change /veh LOC730098 (11760151_x_at) / RFU OR4N2 (11742367_at) / Fold change /veh OR4N2 (11742367_at) / RFU PRRT2 (11749266_a_at) / Fold change /veh PRRT2 (11749266_a_at) / RFU SNX32 (11753110_a_at) / Fold change /veh SNX32 (11753110_a_at) / RFU CDHR5 (11726645_a_at) / Fold change /veh CDHR5 (11726645_a_at) / RFU RCAN1 (11760418_a_at) / Fold change /veh RCAN1 (11760418_a_at) / RFU FAM167A (11723789_a_at) / Fold change /veh FAM167A (11723789_a_at) / RFU FAM26E (11764081_at) / Fold change /veh FAM26E (11764081_at) / RFU ISYNA1 (11749810_s_at) / Fold change /veh ISYNA1 (11749810_s_at) / RFU ACY1 (11761880_at) / Fold change /veh ACY1 (11761880_at) / RFU 11764098_at / Fold change /veh 11764098_at / RFU SAMD14 (11745864_x_at) / Fold change /veh SAMD14 (11745864_x_at) / RFU NPB (11741838_a_at) / Fold change /veh NPB (11741838_a_at) / RFU TMPRSS6 (11731388_a_at) / Fold change /veh TMPRSS6 (11731388_a_at) / RFU KRTAP10-2 (11738614_at) / Fold change /veh KRTAP10-2 (11738614_at) / RFU ARHGAP8 /// PRR5-ARHGAP8 (11727945_x_at) / Fold change /veh ARHGAP8 /// PRR5-ARHGAP8 (11727945_x_at) / RFU KRTAP5-7 /// NADSYN1 (11734609_at) / Fold change /veh KRTAP5-7 /// NADSYN1 (11734609_at) / RFU RASL12 (11751679_a_at) / Fold change /veh RASL12 (11751679_a_at) / RFU CDKN2B (11736163_a_at) / Fold change /veh CDKN2B (11736163_a_at) / RFU PRF1 (11729649_at) / Fold change /veh PRF1 (11729649_at) / RFU, ZNF638 /// ZNF638-IT1 / Fold change vs veh, ZNF638 /// ZNF638-IT1 / RFU, PANK3 / Fold change vs veh, PANK3 / RFU, SH3YL1 / Fold change vs veh, SH3YL1 / RFU, ZEB2 / Fold change vs veh, ZEB2 / RFU, NRIP1 / Fold change vs veh, NRIP1 / RFU, PTTG1IP / Fold change vs veh, PTTG1IP / RFU, CAPN2 / Fold change vs veh, CAPN2 / RFU, MED14 / Fold change vs veh, MED14 / RFU, SNORA58 / Fold change vs veh, SNORA58 / RFU, C1orf63 / Fold change vs veh, C1orf63 / RFU, LRRFIP1 / Fold change vs veh, LRRFIP1 / RFU, NDUFAF7 / Fold change vs veh, NDUFAF7 / RFU, SLC12A2 / Fold change vs veh, SLC12A2 / RFU, IBTK / Fold change vs veh, IBTK / RFU, ESF1 / Fold change vs veh, ESF1 / Fold change vs veh, TMEM50B / RFU, TAOK1 / Fold change vs veh, TAOK1 / RFU, ACBD3 / Fold change vs veh, ACBD3 / RFU, TMA16 / Fold change vs veh, TMA16 / RFU, RWDD3 / Fold change vs veh, RWDD3 / RFU, BCAT1 / Fold change vs veh, BCAT1 / RFU, EDEM3 / Fold change vs veh, EDEM3 / RFU, TMEM33 / Fold change vs veh, TMEM33 / RFU, WDR75 / Fold change vs veh, WDR75 / RFU, AHCTF1 / Fold change vs veh, AHCTF1 / RFU, TFRC / Fold change vs veh, TFRC / RFU, ZDHHC17 / Fold change vs veh, ZDHHC17 / RFU, NOM1 / Fold change vs veh, NOM1 / RFU, ARL8B / Fold change vs veh, ARL8B / RFU, ZBTB11 / Fold change vs veh, ZBTB11 / RFU, TAMM41 / Fold change vs veh, TAMM41 / RFU, KIAA1704 /// LOC100996395 / Fold change vs veh, KIAA1704 /// LOC100996395 / RFU, ING1 / Fold change vs veh, ING1 / RFU, TRMT61B / Fold change vs veh, TRMT61B / RFU, FUBP3 / Fold change vs veh, FUBP3 / RFU, TP53 / Fold change vs veh, TP53 / RFU, TNKS2 / Fold change vs veh, TNKS2 / RFU, ZFP14 / Fold change vs veh, ZFP14 / RFU, ACTR2 / Fold change vs veh, ACTR2 / RFU, PPP3R1 / Fold change vs veh, PPP3R1 / RFU, PIK3R1 / Fold change vs veh, PIK3R1 / RFU, HNRNPA1 / Fold change vs veh, HNRNPA1 / RFU, RNF170 / Fold change vs veh, RNF170 / RFU, ZNF28 / Fold change vs veh, ZNF28 / RFU, RNGTT / Fold change vs veh, RNGTT / RFU, OGT / Fold change vs veh, OGT / RFU, BRD1 / Fold change vs veh, BRD1 / RFU, MARS / Fold change vs veh, MARS / RFU, ZNF655 / Fold change vs veh, ZNF655 / RFU, FAHD1 / Fold change vs veh, FAHD1 / RFU, BDP1 / Fold change vs veh, BDP1 / RFU, LRRCC1 / Fold change vs veh, LRRCC1 / RFU, ARID1A / Fold change vs veh, ARID1A / RFU, ZNF146 / Fold change vs veh, ZNF146 / RFU, ZNF330 / Fold change vs veh, ZNF330 / RFU, GPN3 / Fold change vs veh, GPN3 / RFU, C9orf123 / Fold change vs veh, C9orf123 / RFU, N4BP2L2 / Fold change vs veh, N4BP2L2 / RFU, ARFIP1 / Fold change vs veh, ARFIP1 / RFU, FAM179B / Fold change vs veh, FAM179B / RFU, BCL10 / Fold change vs veh, BCL10 / RFU, UHRF1BP1L / Fold change vs veh, UHRF1BP1L / RFU, BET1 / Fold change vs veh, BET1 / RFU, CNOT2 / Fold change vs veh, CNOT2 / RFU, ZNF268 / Fold change vs veh, ZNF268 / Fold change vs veh, ZNF507 / RFU, DGCR2 / Fold change vs veh, DGCR2 / RFU, WDSUB1 / Fold change vs veh, WDSUB1 / Fold change vs veh, HSP90B1 /// MIR3652 / RFU, ADSS / Fold change vs veh, ADSS / RFU, GK / Fold change vs veh, GK / RFU, ZNF148 / Fold change vs veh, ZNF148 / RFU, TAF9 / Fold change vs veh, TAF9 / RFU, SLC1A5 / Fold change vs veh, SLC1A5 / RFU, SLMO2 / Fold change vs veh, SLMO2 / RFU, ABCC4 / Fold change vs veh, ABCC4 / RFU, LOC101060439 /// RAP1B / Fold change vs veh, LOC101060439 /// RAP1B / RFU, RFX7 / Fold change vs veh, RFX7 / RFU, GTPBP10 / Fold change vs veh, GTPBP10 / RFU, CNEP1R1 / Fold change vs veh, CNEP1R1 / RFU, BIVM-ERCC5 /// ERCC5 / Fold change vs veh, BIVM-ERCC5 /// ERCC5 / RFU, ILF3 / Fold change vs veh, ILF3 / RFU 11762660_at / Fold change /veh 11762660_at / RFU VCAN (11757783_s_at) / Fold change /veh VCAN (11757783_s_at) / RFU DDX43 (11728927_at) / Fold change /veh DDX43 (11728927_at) / RFU KRT8 (11758188_x_at) / Fold change /veh KRT8 (11758188_x_at) / RFU NKD1 (11759106_at) / Fold change /veh NKD1 (11759106_at) / RFU SRD5A1 (11742802_a_at) / Fold change /veh SRD5A1 (11742802_a_at) / RFU TPSAB1 /// TPSB2 (11721975_s_at) / Fold change /veh TPSAB1 /// TPSB2 (11721975_s_at) / RFU GSTM3 (11746129_a_at) / Fold change /veh GSTM3 (11746129_a_at) / RFU IL23R (11737362_x_at) / Fold change /veh IL23R (11737362_x_at) / RFU TMEM51 (11727254_a_at) / Fold change /veh TMEM51 (11727254_a_at) / RFU PIWIL2 (11732686_x_at) / Fold change /veh PIWIL2 (11732686_x_at) / RFU ORM1 (11744905_x_at) / Fold change /veh ORM1 (11744905_x_at) / RFU CCDC152 (11743942_at) / Fold change /veh CCDC152 (11743942_at) / RFU ECM1 (11717891_a_at) / Fold change /veh ECM1 (11717891_a_at) / RFU IL23R (11748794_a_at) / Fold change /veh IL23R (11748794_a_at) / RFU TNFAIP8L3 (11732012_x_at) / Fold change /veh TNFAIP8L3 (11732012_x_at) / RFU MBOAT4 (11741988_at) / Fold change /veh MBOAT4 (11741988_at) / RFU 11764193_at / Fold change /veh 11764193_at / RFU TMEM53 (11763286_at) / Fold change /veh TMEM53 (11763286_at) / RFU MAGEB2 (11727129_at) / Fold change /veh MAGEB2 (11727129_at) / RFU TMEM200A (11744735_a_at) / Fold change /veh TMEM200A (11744735_a_at) / RFU CCDC152 (11751479_a_at) / Fold change /veh CCDC152 (11751479_a_at) / RFU FAM211A (11726209_a_at) / Fold change /veh FAM211A (11726209_a_at) / RFU RGS16 (11746705_a_at) / Fold change /veh RGS16 (11746705_a_at) / RFU VCAN (11755009_s_at) / Fold change /veh VCAN (11755009_s_at) / RFU RHOB (11743442_s_at) / Fold change /veh RHOB (11743442_s_at) / RFU RGS16 (11720943_a_at) / Fold change /veh RGS16 (11720943_a_at) / RFU RGS16 (11720944_at) / Fold change /veh RGS16 (11720944_at) / RFU, VPS4B / Fold change vs veh, VPS4B / RFU, CREB1 / Fold change vs veh, CREB1 / RFU, DNAJC13 / Fold change vs veh, DNAJC13 / RFU, GNAQ / Fold change vs veh, GNAQ / RFU, CDK5R1 / Fold change vs veh, CDK5R1 / RFU, ZRANB3 / Fold change vs veh, ZRANB3 / RFU, CUL4A / Fold change vs veh, CUL4A / RFU, CCNY / Fold change vs veh, CCNY / RFU, UFL1 / Fold change vs veh, UFL1 / RFU, COG3 / Fold change vs veh, COG3 / RFU, DIAPH2 / Fold change vs veh, DIAPH2 / RFU, SKA2 / Fold change vs veh, SKA2 / RFU, AFF3 / Fold change vs veh, AFF3 / RFU, LMF1 / Fold change vs veh, LMF1 / RFU, IPO11 / Fold change vs veh, IPO11 / RFU, DFFB / Fold change vs veh, DFFB / RFU, FOXP1 / Fold change vs veh, FOXP1 / RFU, CARD8 / Fold change vs veh, CARD8 / RFU, STRN3 / Fold change vs veh, STRN3 / RFU, ADK / Fold change vs veh, ADK / RFU, RASSF2 / Fold change vs veh, RASSF2 / RFU, WIPF1 / Fold change vs veh, WIPF1 / RFU, LARP1B / Fold change vs veh, LARP1B / RFU, RASA1 / Fold change vs veh, RASA1 / RFU, RB1 / Fold change vs veh, RB1 / RFU, PPFIA1 / Fold change vs veh, PPFIA1 / RFU, MAT2A / Fold change vs veh, MAT2A / RFU, CCT5 / Fold change vs veh, CCT5 / RFU, WDR92 / Fold change vs veh, WDR92 / RFU, CUX1 / Fold change vs veh, CUX1 / RFU, TTC7A / Fold change vs veh, TTC7A / RFU, TMEM135 / Fold change vs veh, TMEM135 / RFU, DEPTOR / Fold change vs veh, DEPTOR / RFU, CPM / Fold change vs veh, CPM / RFU, DNAJB6 / Fold change vs veh, DNAJB6 / RFU, CACNA2D3 / Fold change vs veh, CACNA2D3 / RFU, DTX4 / Fold change vs veh, DTX4 / RFU, TFCP2 / Fold change vs veh, TFCP2 / RFU, GMCL1 /// GMCL1P1 / Fold change vs veh, GMCL1 /// GMCL1P1 / RFU, AEBP2 / Fold change vs veh, AEBP2 / RFU, SNHG1 /// SNORD22 /// SNORD25 /// SNORD26 /// SNORD27 /// SNORD28 /// SNORD29 /// SNORD31 / Fold change vs veh, SNHG1 /// SNORD22 /// SNORD25 /// SNORD26 /// SNORD27 /// SNORD28 /// SNORD29 /// SNORD31 / Fold change (Aza/veh), C12orf56 (ProbeSet 11735607_a_at) / Fold change (ACY-1035/veh), C12orf56 (ProbeSet 11735607_a_at) / Fold change (Aza/veh), FGFR1OP (ProbeSet 11751329_s_at) / Fold change (ACY-1035/veh), FGFR1OP (ProbeSet 11751329_s_at) / Fold change (Aza/veh), VPS36 (ProbeSet 11739960_a_at) / Fold change (ACY-1035/veh), VPS36 (ProbeSet 11739960_a_at) / RFU SYPL1 (11715823_x_at) / Fold change /veh SYPL1 (11715823_x_at) / RFU IGFBP7 (11715501_s_at) / Fold change /veh IGFBP7 (11715501_s_at) / RFU REEP3 (11722064_at) / Fold change /veh REEP3 (11722064_at) / RFU IGLL1 (11728026_x_at) / Fold change /veh IGLL1 (11728026_x_at): dose or concentration left out as unconfirmed
Details: ProbeSet 11741311_a_at; LIST B

With `Nc1ccc(-c2cccs2)cc1NC(=O)c1ccc2c(c1)cc(C1CC1)n2CCN1CCOCC1` [ACY-1035] the “RFU, ZNF655” value was 32.95 RFU.
